pEC50: −log10 of the molar value. The source made the active and inactive calls. The rule behind the calls is not given here.

Data set [1] deals with T1, Free fatty acid receptor 1 (Homo sapiens, UniProt O14842). In words: Agonist activity at human GPR40 expressed in CHO cells by aequorin assay. The data set is classed as cell-based.
Data set [2] in a line: Volume of distribution at steady state in rat. The data set is classed as ADME, organism-based. The note with it: in vivo, read-out: Vdss.
A short description of data set [3]: Mean residence time in rat. The data set is classed as ADME, organism-based. The note with it: in vivo.
The target in data set [4] is T1, Free fatty acid receptor 1. In words: Agonist activity at human GPR40 expressed in mouse A9 cells by inositol phosphate accumulation assay. The data set is classed as functional, cell-based.
The nature of data set [5]: Oral bioavailability in rat at 2 mg/kg. The note with it: in vivo. The data set is classed as ADME, organism-based.
A short description of data set [6]: Oral bioavailability in dog at 2 mg/kg. The data set is classed as ADME, organism-based, Canis lupus familiaris. The note with it: in vivo.
Data set [7] in a line: Half life in cynomolgus monkey. The data set is classed as ADME, organism-based, Macaca fascicularis. The note with it: in vivo.
The nature of data set [8]: Volume of distribution at steady state in cynomolgus monkey. The data set is classed as ADME, organism-based, Macaca fascicularis. The note with it: in vivo, read-out: Vdss.
A short description of data set [9]: Oral bioavailability in cynomolgus monkey at 2 mg/kg. The data set is classed as ADME, organism-based, Macaca fascicularis. The note with it: in vivo.
The nature of data set [10]: Half life in dog. The format is ADME, organism-based, Canis lupus familiaris. The note with it: in vivo.
The nature of data set [11]: Ratio of drug level in brain to plasma in rat at 5 mg/kg, po after 3 hrs. The data set is classed as ADME, organism-based. Set-up: dose 5 mg/kg, route oral. The note with it: brain and plasma, read-out: BPR.
Data set [12] is described as follows: Plasma concentration in mouse at 1 mg/kg, po measured for 4 hrs. On the set-up: dose 1 mg/kg, route oral. The format is ADME, organism-based.
A short description of data set [13]: Inhibition of CYP450 (unknown origin). The data set is classed as ADME. The note with it: human.
The test system of another data set is Islets of langerhans. In words: Induction of insulin secretion in human GPR40 knock-in mouse pancreatic islets.
In another data set the test system is Plasma. In words: […] in mouse plasma at 1 mg/kg, po. The format is ADME, organism-based. On the set-up: dose 1 mg/kg, route oral. The note with it: in vivo.
Data set [14] can be described thus: Half life in rat. The format is ADME, organism-based. The note with it: in vivo.
Data set [15] in a line: Induction of CYP450 (unknown origin). The data set is classed as ADME. The note with it: human.
The nature of data set [16]: Volume of distribution at steady state in dog. The data set is classed as ADME, organism-based, Canis lupus familiaris. The note with it: in vivo, read-out: Vdss.
In data set [17] the test system is Mus musculus. In words: Antidiabetic activity in human GPR40 knock-in mouse assessed as reduction in blood glucose level at 10 mg/kg, po administered via gavage 1 hr before glucose challenge by oral glucose tolerance test. The data set is classed as functional, organism-based. On the set-up: dose 10 mg/kg.
Data set [18] has as its target Voltage-gated inwardly rectifying potassium channel KCNH2 (Homo sapiens, UniProt Q12809). In words: Inhibition of human ERG.
Data set [19] has as its system Mus musculus. In words: Antidiabetic activity in human GPR40 knock-in mouse assessed as reduction in glucose AUC at 10 mg/kg, po administered via gavage 1 hr before glucose challenge by oral glucose tolerance test. The data set is classed as functional.
The nature of data set [20]: Clearance in rat at 0.5 mg/kg, iv. The format is ADME, organism-based. Set-up: dose 0.5 mg/kg, route intravenous. The note with it: in vivo.

T1 sequence (O14842 whole entry): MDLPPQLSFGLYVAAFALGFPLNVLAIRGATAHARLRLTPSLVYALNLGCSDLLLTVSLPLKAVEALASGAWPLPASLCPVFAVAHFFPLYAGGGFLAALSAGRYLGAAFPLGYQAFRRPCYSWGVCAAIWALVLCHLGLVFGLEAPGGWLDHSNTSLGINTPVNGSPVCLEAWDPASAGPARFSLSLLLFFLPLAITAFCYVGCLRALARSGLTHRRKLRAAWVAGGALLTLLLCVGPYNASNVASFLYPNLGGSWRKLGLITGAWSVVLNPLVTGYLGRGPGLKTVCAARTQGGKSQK
Voltage-gated inwardly rectifying potassium channel KCNH2, sequence (Q12809 whole entry): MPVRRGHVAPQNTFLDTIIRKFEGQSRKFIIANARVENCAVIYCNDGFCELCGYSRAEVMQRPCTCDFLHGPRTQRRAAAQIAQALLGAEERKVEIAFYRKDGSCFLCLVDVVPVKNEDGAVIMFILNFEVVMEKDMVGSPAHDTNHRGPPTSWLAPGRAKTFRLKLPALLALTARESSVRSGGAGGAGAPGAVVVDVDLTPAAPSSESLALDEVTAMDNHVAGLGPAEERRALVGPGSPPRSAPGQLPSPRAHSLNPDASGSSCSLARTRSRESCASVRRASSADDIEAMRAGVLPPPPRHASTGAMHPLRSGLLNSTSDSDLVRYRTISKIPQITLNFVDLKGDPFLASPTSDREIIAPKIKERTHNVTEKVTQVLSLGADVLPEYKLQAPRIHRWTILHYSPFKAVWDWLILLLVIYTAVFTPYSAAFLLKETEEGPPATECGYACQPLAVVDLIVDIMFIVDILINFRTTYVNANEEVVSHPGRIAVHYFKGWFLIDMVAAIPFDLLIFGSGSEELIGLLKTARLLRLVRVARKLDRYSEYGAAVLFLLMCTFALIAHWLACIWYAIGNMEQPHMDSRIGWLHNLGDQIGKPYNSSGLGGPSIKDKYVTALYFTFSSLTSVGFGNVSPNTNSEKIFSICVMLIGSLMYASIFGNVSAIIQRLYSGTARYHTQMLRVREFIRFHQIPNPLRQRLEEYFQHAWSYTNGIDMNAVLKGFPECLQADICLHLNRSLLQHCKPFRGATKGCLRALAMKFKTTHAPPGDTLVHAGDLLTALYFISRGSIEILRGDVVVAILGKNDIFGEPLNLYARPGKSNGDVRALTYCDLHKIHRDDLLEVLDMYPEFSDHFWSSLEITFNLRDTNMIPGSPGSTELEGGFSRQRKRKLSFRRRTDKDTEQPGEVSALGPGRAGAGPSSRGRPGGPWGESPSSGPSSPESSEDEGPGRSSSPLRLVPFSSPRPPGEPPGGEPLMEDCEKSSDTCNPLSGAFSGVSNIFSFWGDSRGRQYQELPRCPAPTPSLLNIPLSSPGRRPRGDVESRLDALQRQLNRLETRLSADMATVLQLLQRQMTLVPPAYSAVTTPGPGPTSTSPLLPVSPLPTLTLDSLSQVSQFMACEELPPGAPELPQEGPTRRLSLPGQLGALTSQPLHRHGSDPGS

Take `Cc1nc(-c2ccc(C(F)(F)F)cc2)sc1COc1ccc([C@H](CC(=O)O)c2nccn2C)cc1`: the pEC50 in [1] is 7.14; in data set [4], 7.80. Further, in [2], the Vd worked out at 0.64 L/kg. Besides, in data set [3], the MRT came out at 3.7 h.
Turning to `Cc1nc(-c2ccc(C(F)(F)F)cc2)sc1COc1ccc([C@H](CC(=O)O)c2nnnn2C)cc1`, the pEC50 in [1] is 7.39; in data set [4], 8.42. In data set [2], the Vd came to 3.2 L/kg. The compound also registered a bioavailability in [5] of 6.7%. This compound also showed a mean residence time MRT in data set [3] of 0.74 h.
In the same order, the values of `Cc1cc(Cl)ccc1-c1cccc(COc2ccc([C@H](CC(=O)O)c3ncnn3C)cc2)c1` are 7.48, 7.96, 3.5 L/kg, 18% and 2.5 h.
For `Cc1cc(Cl)ccc1-c1cccc(COc2ccc([C@H](CC(=O)O)c3nnnn3C)cc2)c1`, the results for the pEC50 in [1] and in [4] were 7.92 and 8.89, respectively. Moreover, the Vd in data set [2] was 14.3 L/kg. In data set [5], this compound returned a bioavailability of 53%. Also, the MRT in data set [3] stood at 5.2 h.
The compound `CC#C[C@@H](CC(=O)O)c1ccc(OCc2cccc(-c3ccc(Cl)cc3C)c2)cc1` had a negative-log EC50 (pEC50) in data set [1] of 7.44.
On to `Cc1nc(-c2ccc(C(F)(F)F)cc2)sc1COc1ccc([C@H](CC(=O)O)c2cnco2)cc1`, for which the pEC50 is 7.24 in data set [1] and 8.05 in data set [4].
As for `Cc1nc(-c2ccc(C(F)(F)F)cc2)sc1COc1ccc([C@H](CC(=O)O)c2ncco2)cc1`, the pEC50 in data set [1] is 7.16.
On to `Cc1nc(-c2ccc(C(F)(F)F)cc2)sc1COc1ccc([C@H](CC(=O)O)c2ccon2)cc1`, for which the bioavailability in data set [6] came to 100%; in [9], 65%; in data set [5] it was 77%. The half-life in data set [7] is 14 h; in data set [10], 5.6 h; in [14], 5.3 h. For the same compound, the Vd in data set [8] worked out at 0.35 L/kg; in [2], 0.68 L/kg; in data set [16], 0.6 L/kg. The Kp at 3 h in [11] turned out to be 0.02. Moreover, the results for the pEC50 (in data set [1]; with Islets of langerhans; in [4]) were 7.44, 7.26 and 8.44, respectively. In [12], this compound had a concentration at 4 h of 2000 nM. Also, the “inhibition (INH)” value in data set [13] and in data set [18] was “Not Active” each time. Moreover, the “Cp(f)” value in the data set on Plasma was determined as 8 nM. Besides, in data set [15], the Activity result is reported as “Not Active”. For the same compound, the inhibition result in the data set with Mus musculus [17] is “Active”. In addition, in the data set on Mus musculus [19], the inhibition in vivo at 10 mg/kg is 19%.
As to `Cc1nc(-c2ccc(C(F)(F)F)cc2)sc1COc1ccc([C@H](CC(=O)O)c2ncnn2C)cc1`, in [1], the negative-log EC50 (pEC50) is 7.19. In addition, the Vd in [2] stood at 1.5 L/kg. The compound further registered a mean residence time (MRT) in data set [3] of 3.6 h.
As to `CC#C[C@@H](CC(=O)O)c1ccc(OCc2cccc(-c3ccc(C(F)(F)F)cc3)c2)cc1`, the Vd in [2] was 0.58 L/kg. For the same compound, the bioavailability in data set [5] turned out to be 84%. The mean residence time (MRT) in data set [3] stood at 10 h.
As for `Cc1cc(Cl)ccc1-c1cccc(COc2ccc([C@H](CC(=O)O)c3nccn3C)cc2)c1`, in data set [20], the clearance was 5.17 mL/min/kg. For the same compound, the pEC50 in [1] was 7.48; in data set [4], 8.12. Besides, the Vd in [2] is 0.73 L/kg. In data set [5], this compound registered a bioavailability of 48%. For the same compound, the mean residence time MRT in [3] is 2.4 h.

These data come from ChEMBL document CHEMBL3286293, “Optimization of GPR40 Agonists for Type 2 Diabetes” (ACS Med Chem Lett, 2014).
